Test results reported in patent US20090176887A1, “Biocidal Compositions and Methods” (priority 2006, published 2009).

Columns and labels:
Assay in all cases: Broth dilution method for determining MIC
Conditions in all cases: pH adjusted to about 7, blend as ascorbic acid:ADBAC/DDAC
E coli = format: cell-based, Escherichia coli
Description: (§1) The synergistic activities of different components in a composition (control, conventional comparative, or of the present technology) is determined by the method described by Kull et al. in […], Vol. 9, pages 538-541 (1961), which uses a synergy index to indicates whether synergy exists. A synergy index less than one (<1) indicates synergy; a synergy index of one (1) indicates additivity; a synergy index greater than one (>1) indicates antagonism.
(§2) When applied to Example 1 below, the synergy index of L-ascorbic acid and ADBAC/DDAC can be determined by the following equation:
(§3) Synergy Index=Qa/QA+Qb/QB, […]
(§4) The Minimum Inhibitory Concentration (MIC) of a chemical against a certain bacterium is determined according to the broth dilution method described in National Committee for Clinical Laboratory Standards entitled, “Methods for Dilution Antimicrobial Susceptibility Test for Bacteria that Grow Aerobically” document M7-A2, 2nd ed., 10:8, 1990. […]
(§5) In this example, standard MIC values of ascorbic acid, ADBAC/DDAC, and a 1:1 blend of ascorbic acid and ADBAC/DDAC were determined against E coli, S. aureus, and P. aeruginosa according to the broth dilution method introduced above. […] The synergy index of the 1:1 blend of ascorbic acid and ADBAC/DDAC against each of the biocidal targets was then calculated according to the method as described above.

S. aureus = format: cell-based, Staphylococcus aureus
Description: as §1, §2, §3, §4, §5

P. aeruginosa = format: cell-based, Pseudomonas aeruginosa
Description: as §1, §2, §3, §4, §5

- MIC (E coli): >10,000 ppm, active
- MIC (S. aureus): >10,000 ppm, active
- MIC (P. aeruginosa): >10,000 ppm, active
SMILES: O=C1O[C@H]([C@@H](O)CO)C(O)=C1O [L-Ascorbic Acid]
